Measured values reported in US8022103B2, “Ester prodrugs of prostratin and related phorbol compounds” (Salvia Sciences, Inc., priority 2005, dated 2011).
In brackets after ≈: the same amount, converted by molar mass. Read-outs that look alike come from different tables or passages of the source.

Legend:
[1] = test system: human monocytes/macrophages; assay: MTS staining for macrophage viability (cytotoxicity); assay type: cell-based
Method: Anti-HIV efficacy evaluation in human monocyte/macrophages. Following 6 to 14 days in culture, the monocyte/macrophages cultures were washed 3 times to remove any non-adherent cells, and serially diluted test compounds were added followed by the addition of a pre-titered amount of HIV. Cultures were washed a final time by media removal 24 h post infection, fresh compound added and the cultures continued for an additional six days. Assays were performed using a standardized microtiter plate format developed by the Infectious Disease Research Department of Southern Research Institute. […] At assay termination, virus replication was measured by collecting cell-free supernatant samples, which were analyzed for HIV p24 antigen content using a commercially available p24 ELISA assay (Coulter). Following removal of supernatant samples, compound cytotoxicity was measured by addition of MTS to the plates for determination of cell viability. […]
MTS staining for macrophage viability to measure cytotoxicity. At assay termination, the assay plates were stained with the soluble tetrazolium-based dye MTS (CellTiter Reagent, Promega) to determine cell viability and quantify compound cytotoxicity. MTS is metabolized by the mitochondrial enzymes of metabolically active cells to yield a soluble formazan product, allowing the rapid quantitative analysis of cell viability and compound cytotoxicity. […]

[2] = test system: HIV-1IIIB; assay: HIV-1 antiviral cytoprotection assay in CEM-SS cells; assay type: cell-based
Method: Antiviral efficacy of SA-101A and SA-101B compounds were evaluated in an HIV 1 antiviral cytoprotection assay using CEM-SS cells and the laboratory adapted HIV 1IIIB virus strain.
Compound preparation. Compounds SA-101A and SA-101B were prepared in powder form and solubilized in DMSO and stored at −20° C. AZT (Sigma), solubilized in sterile H2O, was used as a positive antiviral control and was stored at 4° C. The compounds were evaluated at a high test concentration of 500 μg/mL. AZT was run in parallel at a concentration of 500 nM.
Cell Preparation. CEM-SS cells were passaged in T-75 flasks prior to use in the antiviral assay. On the day preceding the assay, the cells were split 1:2 to assure they were in an exponential growth phase at the time of infection. Total cell and viability quantification was performed using a hemacytometer and trypan blue exclusion. Cell viability was greater than 95% for the cells to be utilized in the assay. […]
Virus Preparation. […] The virus was resuspended and diluted into tissue culture medium such that the amount of virus added to each well in a volume of 50 μl was the amount determined to give approximately 90% cell killing at 6 days post-infection.
MTS Staining for Cell Viability. At assay termination, the assay plates were stained with the soluble tetrazolium-based dye MTS (Cell Titer Reagent Promega) to determine cell viability and quantify compound toxicity. […]

Structure (SMILES)	TC50 [1] [µg/mL]	IC50 ([2]; Human immunodeficiency virus 1, read-out: IC50) [µg/mL]	TC50 ([1]; 40% Human AB serum) [µg/mL]	IC50 [2]
CC(=O)O[C@@]12C[C@@H](C)[C@@]3(O)[C@@H](C=C(CO)C[C@]4(O)C(=O)C(C)=C[C@@H]34)[C@@H]1C2(C)C [SA-101A, 12-deoxyphorbol 13-acetate]	17.3 (≈ 44.3 µM)	0.086 (≈ 0.22 µM)	–	–
CC(=O)OC12CC(C)C3(O)C(C=C(COC(=O)CCC(=O)O)CC4(O)C(=O)C(C)=CC43)C1C2(C)C (stereo not shown) [SA-101B, Prostratin Succinate]	–	–	21.0	did not achieve an IC50 value
